For one compound, IC50 and PRR7 transcript abundance results are on record in publication PMC6747015, “Structure–function study of a novel inhibitor of the casein kinase 1 family in Arabidopsis thaliana” (Plant Direct, 2019).

The target in one assay is T1, Recombinant CKL4 kinase (Arabidopsis thaliana, UniProt Q8LPI7).
T1 sequence (Q8LPI7 1-414): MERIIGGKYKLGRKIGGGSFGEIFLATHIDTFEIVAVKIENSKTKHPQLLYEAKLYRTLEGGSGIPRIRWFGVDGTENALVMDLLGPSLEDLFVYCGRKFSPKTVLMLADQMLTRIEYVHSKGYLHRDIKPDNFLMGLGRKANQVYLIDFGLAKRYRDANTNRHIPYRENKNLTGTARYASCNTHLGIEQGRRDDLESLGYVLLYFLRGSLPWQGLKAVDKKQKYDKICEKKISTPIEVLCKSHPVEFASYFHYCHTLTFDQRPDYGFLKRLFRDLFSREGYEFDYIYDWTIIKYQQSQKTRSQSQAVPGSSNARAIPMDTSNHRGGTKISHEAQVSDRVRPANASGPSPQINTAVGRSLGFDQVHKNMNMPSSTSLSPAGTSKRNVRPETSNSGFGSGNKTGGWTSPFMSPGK
As to the kind of experiment: In vitro phosphorylation assay of CKL4 (32P phosphorylation of casein). The format is biochemical. The conditions noted are these: recombinant CKL4, casein, 32P‐ATP, 37°C for 2 hr; read-out: IC50 for in vitro CKL4 kinase activity. Here is the method: In vitro phosphorylation assays using recombinant CKL4 were performed as described previously (Uehara et al., 2019), with synthetic small molecules. IC261 and PF‐670462 were purchased (Sigma‐Aldrich catalog numbers I0658 and SML0795, respectively). PHA767491 was synthesized as previously described (Uehara et al., 2019). All chemical compounds were dissolved in dimethyl sulfoxide (DMSO) as 10 mM stock solutions. Stock solutions were diluted with DMSO to the working concentration and added to assays in kinase reaction buffer (Uehara et al., 2019).
The activities of three known CK1 inhibitors were measured in vitro by a previously reported method (Uehara et al., 2019). Recombinant CKL4 kinase, casein, ^32P‐ATP, and different concentrations of the inhibitors were combined in a reaction buffer and kept at 37°C for 2 hr. Resulting samples were separated on a polyacrylamide gel by electrophoresis, and ^32P phosphorylation of casein was measured as an indicator of CKL4 kinase activity. IC50 (half‐maximal inhibitory concentration) was determined by calculating the results from at least two independent experiments. […] The stronger in vitro CK1 inhibitory activity shown by PF‐670462 relative to PHA767491 was consistent with previous reports (Uehara et al., 2019).

The next assay concerns PRR7. As to the kind of experiment: RT-qPCR of the CK1 downstream gene PRR7. Conditions: 6 hr. Format: in vivo, Arabidopsis. Here is the method: Arabidopsis Col‐0 seedlings that had been grown under constant light conditions for […] were immersed in 10 or 50 µM of the GSK‐3, SHAGGY‐related, and BIN2 kinase inhibitor Bikinin (SML0094, Sigma) (De Rybel et al., 2009), […], or DMSO as control for 6 hr. Three biological replicates were used for each assay. Harvested seedlings were frozen in liquid nitrogen and crushed with zirconia beads in a Tissue Lyser II, and RNA was isolated with Illustra RNAspin (25‐0500‐72, GE Healthcare). RT‐qPCR was performed as described previously (Nakamichi et al., 2010) using an Eco Real‐Time PCR System (Illumina). Gene expression was normalized against IPP2, and maximal values were set to 1. Primers for detecting IPP2, PRR7, GR60ox2, and CPD were described previously (De Rybel et al., 2009; Kamioka et al., 2016).
Because the ATSK family was identified by the molecular probe assay as potential targets of AMI‐331, even though the affinities between AMI‐331 and ATSKs were not as high as between AMI‐331 and CK1, we used the ATSK inhibitor Bikinin to determine if AMI‐331 treatment affects the expression of genes downstream of ATSKs (De Rybel et al., 2009). Four‐day‐old Arabidopsis seedlings grown under constant light conditions were treated with Bikinin or AMI‐331 for 6 hr, and mRNA extracted from seedlings samples was analyzed by RT‐qPCR.
(Real-time PCR tracks product formation cycle by cycle.)

A word on the IC50: it is the point on the concentration scale where inhibition reaches its midpoint. On to `C#CCn1c2c(c(Br)c1-c1ccncc1)C(=O)NCC2.Cl` [AMI‐331], for which the IC50 at Recombinant CKL4 kinase was found to be 700 nM. Besides, the PRR7 transcript abundance entry is given as “significantly decreased” with PRR7 (1 µM); “decreased” in the assay with PRR7 (5 and 25 µM).
